Tests used:
[1] = Antioxidant behavior of C60 fullerene compared with vitamin C (reported); settings: 60 atoms for C60 fullerene versus six for vitamin C
From the text: Antioxidant behavior has been reported in C60 fullerene as being 172 times that of vitamin C or ascorbic acid.
The reported factor of 172 times greater than vitamin C can be partially explained by C60 fullerene having 60 carbons over which electron delocalization can proceed versus only six atoms of a mixture of half and half carbon and oxygen for vitamin C. If it were just numbers of atoms over which electron delocalization proceeds in its effectiveness in stabilizing unpaired electrons arising from ROS, one would expect that the potency of C60 fullerene would be only ten times that of vitamin C. Phenolics involve only seven atoms for stabilizing unpaired electrons of six carbons from the benzene ring plus the phenolic oxygen atom and thus C60 fullerene would then be expected to be a bit less than ten times that of phenolic antioxidants.
The reported 172 factor superiority of C60 fullerene in antioxidant behavior over vitamin C or ascorbic acid cannot be accounted for on the basis of individual atoms involved in the delocalization network alone. […] So, there must be something exceptional about the electron delocalization involving 3D fullerene concentric shells over 2D ascorbic acid or phenolics. There are several explanations for the superiority of 3D fullerene systems especially of the fullerene CNO systems: […]

rat = settings: cited from earlier work

## c12c3c4c5c1c1c6c7c2c2c8c3c3c9c4c4c%10c5c5c1c1c6c6c%11c7c2c2c7c8c3c3c8c9c4c4c9c%10c5c5c1c1c6c6c%11c2c2c7c3c3c8c4c4c9c5c1c1c6c2c3c41 [C60 fullerene]
[1]
  superiority in antioxidant behavior over ascorbic acid, taking into account the number of atoms in the electron delocalization network: 17.2 factor
rat
  life expectancy: nearly doubling of life expectancy

Reference: patent US20250223171A1, “ALLOTROPE OF CARBON HAVING INCREASED ELECTRON DELOCALIZATION” (Structured Nano Carbon LLC, priority 2017, published 2025)
